This note sets out measurements from patent US8981111B2 (priority 2008, dated 2015).

The first series is described as follows: log P (HPLC/MS data of the preparation examples). The following applies: HCOOH.
As for “N-(6-{[({(3-bromo-4-methoxyphenyl)[3-chloro-5-(trifluoromethyl)pyridin-2-yl]methylene}amino)oxy]methyl}pyridin-2-yl)-3-methylbutanamide [Example 444]”, the “log P(HCOOH)” value was determined as 5.03.
On the same count and under the same terms, in the case of “N-{2-[({[(1-methyl-1H-imidazol-2-yl)(phenyl)methylene]amino}-oxy)methyl]pyrimidin-4-yl}cyclopropanecarboxamide [Example 193]” it was 1.50.
On to “pentyl{2-[({[(1-methyl-1H-imidazol-2-yl)(phenyl)methylene]amino}oxy)-methyl]pyrimidin-4-yl}carbamate [Example 61]”, for which the “log P(HCOOH)” value is reported as 2.28.
Still for that read-out and setting: in the case of “pentyl{2-[({[(1-methyl-1H-imidazol-5-yl)(phenyl)methylene]amino}oxy)-methyl]pyrimidin-4-yl}carbamate [Example 139]” it was 2.66.

The same series, now with this note: HCOOH (formic acid).
As to `Cn1cncc1C(=NOCc1cccc(N)n1)c1ccsc1` [Example 493, 6-[({[(1-methyl-1H-imidazol-5-yl)(3-thienyl)methylene]amino}oxy)methyl]pyridin-2-amine], the chromatographic logP (in general, lipophilicity estimated from chromatographic retention) stood at 0.39.
Same read-out and setting: in the case of `Cn1cncc1C(=NOCc1cccc(N2C(=O)c3ccccc3C2=O)n1)c1cccs1` [Example 494, 2-{6-[({[(1-methyl-1H-imidazol-5-yl)(2-thienyl)methylene]amino}-oxy)methyl]pyridin-2-yl}-1H-isoindole-1,3(2H)-dione] it was 1.66; in that of `Cn1cncc1C(=NOCc1csc(N)n1)c1cccs1` [Example 495, 4-[({[(1-methyl-1H-imidazol-5-yl)(2-thienyl)methylene]amino}oxy)methyl]-1,3-thiazol-2-amine], 0.22.
Same read-out and setting: in the case of `Cn1cncc1C(=NOCc1csc(N)n1)c1ccsc1` [Example 496, 4-[({[(1-methyl-1H-imidazol-5-yl)(3-thienyl)methylene]amino}oxy)methyl]-1,3-thiazol-2-amine] it was 0.45; in that of `Cn1ccnc1C(=NO)c1ccccc1` [N-hydroxy-1-(1-methyl-1H-imidazol-2-yl)-1-phenylmethanimine], 0.24.
The compound `Cn1cncc1C(=NO)c1cccs1` [N-hydroxy-1-(1-methyl-1H-imidazol-5-yl)-1-(2-thienyl)methanimine] registered a chromatographic logP of 0.45.
Still for that read-out and setting: as for `Cn1cncc1C(=NO)c1ccsc1` [N-hydroxy-1-(1-methyl-1H-imidazol-5-yl)-1-(3-thienyl)methanimine], the figure is 0.21; as for `Cn1cncc1C(=NO)c1ccccc1` [N-hydroxy-1-(1-methyl-1H-imidazol-5-yl)-1-phenylmethanimine], 0.41; as for `Cc1nocc1C(=NO)c1cccs1` [N-hydroxy-1-(3-methyl-1,2-oxazol-4-yl)-1-(2-thienyl)methanimine], 1.75.
With `CON(C)C(=O)c1cccs1` [N-methoxy-N-methylthiophene-2-carboxamide], the chromatographic logP was found to be 1.44.
The compound `CON(C)C(=O)c1ccsc1` [N-methoxy-N-methylthiophene-3-carboxamide] gave a chromatographic logP of 1.3.

The series is the same for the next values; noted with them: HPLC (LC-MS) method [b]: pH 2.7, 0.1% formic acid in water and acetonitrile, linear gradient 10% to 95% acetonitrile; EEC directive 79/831 Annex V.A8.
Consider `CC(C)CC(=O)Nc1nc(CON=C(c2cccs2)c2cncn2C)cs1` [Example 450], for which the log p was 1.66^[b].
Turning to `CCCC(=O)Nc1nc(CON=C(c2cccs2)c2cncn2C)cs1` [Example 451], the log p was 1.47^[b].
Regarding `CCCCCCC(=O)Nc1nc(CON=C(c2cccs2)c2cncn2C)cs1` [Example 452], the log p was 2.14^[b].
Still for that read-out and setting: as for `CCCCC(=O)Nc1nc(CON=C(c2cccs2)c2cncn2C)cs1` [Example 453], the figure is 1.7^[b]; as for `CCCCCCCCCC(=O)Nc1nc(CON=C(c2cccs2)c2cncn2C)cs1` [Example 454], 2.86^[b].
Consider `CCC(C(=O)Nc1cccc(CON=C(c2cccs2)c2cncn2C)n1)c1ccccc1` (stereo not drawn) [Example 455], for which the log p is 2.2^[b].
`Cn1cccc1C(=NOCc1cccc(N2C(=O)c3ccccc3C2=O)n1)c1ccc(Cl)nc1` [Example 463]: the log p was 3.78^[b].
Take `Cn1cccc1C(=NOCc1cccc(N)n1)c1ccc(Cl)nc1` [Example 464]: the log p was 1.72^[b].
For `Cn1ncnc1C(=NOCc1cccc(N2C(=O)c3ccccc3C2=O)n1)c1ncc(C(F)(F)F)cc1Cl` [Example 465], the log p was 3.15^[b].
The same measure, in the same setting: as for `Cn1ncnc1C(=NOCc1cccc(N)n1)c1ncc(C(F)(F)F)cc1Cl` [Example 466], the figure is 1.3^[b].
In the case of `Cn1ncnc1C(=NOCc1cccc(NC(=O)Cc2ccccc2)n1)c1ncc(C(F)(F)F)cc1Cl` [Example 467], the log p was 3.46^[b].
As to `CCCCCC(=O)Nc1cccc(CON=C(c2ncc(C(F)(F)F)cc2Cl)c2ncnn2C)n1` [Example 468], the log p was 3.85^[b].
On the same count and under the same terms, as for `CCCCCOC(=O)Nc1cccc(CON=C(c2ncc(C(F)(F)F)cc2Cl)c2ncnn2C)n1` [Example 469], the figure is 4.41^[b]; as for `Cn1ncnc1C(=NOCc1cccc(NC(=O)C(C)(C)C)n1)c1ncc(C(F)(F)F)cc1Cl` [Example 470], 3.44^[b]; as for `Cn1ncnc1C(=NOCc1cccc(NC(=O)CCc2ccccc2)n1)c1ncc(C(F)(F)F)cc1Cl` [Example 471], 3.73^[b].
`Cn1ncnc1C(=NOCc1nccc(N)n1)c1ncc(C(F)(F)F)cc1Cl` [Example 472]: the log p is 1.2^[b].
On the same count and under the same terms, in the case of `Cn1ncnc1C(=NOCc1csc(N)n1)c1ncc(C(F)(F)F)cc1Cl` [Example 473] it was 1.56^[b]; in that of `CCCCCC(=O)Nc1ccnc(CON=C(c2ncc(C(F)(F)F)cc2Cl)c2ncnn2C)n1` [Example 474], 3.51^[b]; in that of `CCCCCOC(=O)Nc1ccnc(CON=C(c2ncc(C(F)(F)F)cc2Cl)c2ncnn2C)n1` [Example 475], 3.8^[b].
Same read-out and setting: in the case of `Cn1ncnc1C(=NOCc1nccc(NC(=O)Cc2ccccc2)n1)c1ncc(C(F)(F)F)cc1Cl` [Example 476] it was 3.13^[b].
`Cn1ncnc1C(=NOCc1nccc(NC(=O)CCc2ccccc2)n1)c1ncc(C(F)(F)F)cc1Cl` [Example 477]: the log p is 3.39^[b].
`CC(C)CC(=O)Nc1ccnc(CON=C(c2ncc(C(F)(F)F)cc2Cl)c2ncnn2C)n1` [Example 478]: the log p was 3.06^[b].
Still for that read-out and setting: in the case of `CCCCCC(=O)Nc1nc(CON=C(c2ncc(C(F)(F)F)cc2Cl)c2ncnn2C)cs1` [Example 479] it was 3.6^[b]; in that of `CCCCCOC(=O)Nc1nc(CON=C(c2ncc(C(F)(F)F)cc2Cl)c2ncnn2C)cs1` [Example 480], 3.94^[b].
On the same count and under the same terms, in the case of `Cn1ncnc1C(=NOCc1csc(NC(=O)C(C)(C)C)n1)c1ncc(C(F)(F)F)cc1Cl` [Example 481] it was 3.27^[b].
The same measure, in the same setting: in the case of `Cn1ncnc1C(=NOCc1csc(NC(=O)Cc2ccccc2)n1)c1ncc(C(F)(F)F)cc1Cl` [Example 482] it was 3.27^[b]; in that of `Cn1ncnc1C(=NOCc1csc(NC(=O)CCc2ccccc2)n1)c1ncc(C(F)(F)F)cc1Cl` [Example 483], 3.51^[b]; in that of `CC(C)CC(=O)Nc1nc(CON=C(c2ncc(C(F)(F)F)cc2Cl)c2ncnn2C)cs1` [Example 484], 3.19^[b].
Take `Cc1cccnc1C(=NOCc1csc(N)n1)c1cc(C(F)(F)F)ccn1` [Example 486]: the log p is 1.57^[b].
The same measure, in the same setting: as for `Cc1cccnc1C(=NOCc1csc(NC(=O)C(C)(C)C)n1)c1cc(C(F)(F)F)ccn1` [Example 487], the figure is 3.44^[b]; as for `Cc1cccnc1C(=NOCc1csc(NC(=O)CC(C)C)n1)c1cc(C(F)(F)F)ccn1` [Example 488], 3.31^[b]; as for `CCCCCOC(=O)Nc1nc(CON=C(c2cc(C(F)(F)F)ccn2)c2ncccc2C)cs1` [Example 489], 4.13^[b].
Take `CCCCCC(=O)Nc1nc(CON=C(c2cc(C(F)(F)F)ccn2)c2ncccc2C)cs1` [Example 490]: the log p was 3.76^[b].
Regarding “N-(6-{[({(3-bromo-4-methoxyphenyl)[3-chloro-5-(trifluoromethyl)pyridin-2-yl]methylene}amino)oxy]methyl}pyridin-2-yl)-3-methylbutanamide [Example 444]”, the log p was 1.69^[b].

The series is the same for the next values; noted with them: HPLC method [a]: pH 2.3, 0.1% phosphoric acid and acetonitrile as eluent; EEC directive 79/831 Annex V.A8.
Turning to `COC(=O)c1ccc(C(F)(F)F)nc1CON=C(c1ccccn1)c1ccccn1` [Example 485], the log p is 2.48^[a].

Still in this series, the particulars now being: LC-MS, method [b]: pH 2.7 with 0.1% formic acid in water and acetonitrile, linear gradient 10% to 95% acetonitrile.
With “N-(cyclopropylcarbonyl)-N-(2-{[({[2-(cyclopropylcarbonyl)-1-methyl-1H-imidazol-5-yl](phenyl)methylene}amino)oxy]methyl}pyrimidin-4-yl)cyclopropanecarboxamide [Example 312]”, the log p was 2.22^[b].
“pentyl{2-[({[(1-methyl-1H-imidazol-2-yl)(phenyl)methylene]amino}oxy)-methyl]pyrimidin-4-yl}carbamate [Example 61]”: the log p is 1.92^[b].

Staying with this series, now noted: method [b]: LC-MS at pH 2.7, 0.1% formic acid in water / acetonitrile, linear gradient 10% to 95% acetonitrile.
Consider “N-{2-[({[(1-methyl-1H-imidazol-2-yl)(phenyl)methylene]amino}-oxy)methyl]pyrimidin-4-yl}cyclopropanecarboxamide [Example 193]”, for which the log p is 1.54^[b].
Same read-out and setting: in the case of “pentyl{2-[({[(1-methyl-1H-imidazol-5-yl)(phenyl)methylene]amino}oxy)-methyl]pyrimidin-4-yl}carbamate [Example 139]” it was 3.19^[b].
